Literature values in paper PMC8344021, “Discovery of Small Molecule Bak Activator for Lung Cancer Therapy” (Theranostics, 2021).

Tests used:
SCLC = system: SCLC; set-up: method as in PMID 21282543, PMID 22496272; conditions: single-agent, SCLC patients; ref [16], [17]; cited from earlier work
[1] = system: chronic lymphocytic leukemia (CLL); set-up: method as in PMID 29562156, PMID 31205643; conditions: venetoclax monotherapy or venetoclax/rituximab combination; ref [11], [12]; cited from earlier work

Structure (SMILES) | clinical efficacy (SCLC) | proportion of patients who develop venetoclax failure [1]
CC1(C)CCC(c2ccc(Cl)cc2)=C(CN2CCN(c3ccc(C(=O)NS(=O)(=O)c4ccc(N[C@H](CCN5CCOCC5)CSc5ccccc5)c(S(=O)(=O)C(F)(F)F)c4)cc3)CC2)C1 [navitoclax] | limited efficacy | –
CC1(C)CCC(CN2CCN(c3ccc(C(=O)NS(=O)(=O)c4ccc(NCC5CCOCC5)c([N+](=O)[O-])c4)c(Oc4cnc5[nH]ccc5c4)c3)CC2)=C(c2ccc(Cl)cc2)C1 [venetoclax] | – | 15-25%
